Several values for one entry are separate records, joined by “and”; a condition that tells them apart may be missing. Equal values may be shown once.
Test: xn = mol fraction of the nth substance listed

CCCO + O
Conditions	viscosity
293.15 K, 100 kPa, x1 = 0.07	2.217 mPa·s
293.15 K, 100 kPa, x1 = 0.2	3.175 mPa·s and 3.013 mPa·s
293.15 K, 101 kPa, x1 = 0.01	1.156 mPa·s
293.15 K, 101 kPa, x1 = 0.02	1.335 mPa·s
293.15 K, 101 kPa, x1 = 0.05	1.898 mPa·s
293.15 K, 101 kPa, x1 = 0.07	2.209 mPa·s
293.15 K, 101 kPa, x1 = 0.1	2.545 mPa·s
293.15 K, 101 kPa, x1 = 0.2838	3.191 mPa·s
293.15 K, 101 kPa, x1 = 0.3	3.173 mPa·s
293.15 K, 101 kPa, x1 = 0.4	3.053 mPa·s
293.15 K, 101 kPa, x1 = 0.5	2.88 mPa·s
293.15 K, 101 kPa, x1 = 0.6	2.707 mPa·s
293.15 K, 101 kPa, x1 = 0.7001	2.537 mPa·s
293.15 K, 101 kPa, x1 = 0.8	2.403 mPa·s
298.15 K, 101 kPa, x1 = 0.0058	0.9625 mPa·s
298.15 K, 101 kPa, x1 = 0.01	1.024 mPa·s
298.15 K, 101 kPa, x1 = 0.02	1.16 mPa·s
298.15 K, 101 kPa, x1 = 0.0237	1.225 mPa·s
298.15 K, 101 kPa, x1 = 0.0461	1.552 mPa·s
298.15 K, 101 kPa, x1 = 0.05	1.603 mPa·s
298.15 K, 101 kPa, x1 = 0.0678	1.82 mPa·s
298.15 K, 101 kPa, x1 = 0.07	1.844 mPa·s
298.15 K, 101 kPa, x1 = 0.0976	2.164 mPa·s
298.15 K, 101 kPa, x1 = 0.1195	2.263 mPa·s
298.15 K, 101 kPa, x1 = 0.1833	2.576 mPa·s
298.15 K, 101 kPa, x1 = 0.2398	2.682 mPa·s
298.15 K, 101 kPa, x1 = 0.2838	2.685 mPa·s
298.15 K, 101 kPa, x1 = 0.3108	2.702 mPa·s
298.15 K, 101 kPa, x1 = 0.4	2.592 mPa·s
298.15 K, 101 kPa, x1 = 0.4971	2.511 mPa·s
298.15 K, 101 kPa, x1 = 0.5	2.465 mPa·s
298.15 K, 101 kPa, x1 = 0.6	2.333 mPa·s
298.15 K, 101 kPa, x1 = 0.6916	2.236 mPa·s
298.15 K, 101 kPa, x1 = 0.7001	2.202 mPa·s
298.15 K, 101 kPa, x1 = 0.8	2.097 mPa·s
298.15 K, 101 kPa, x1 = 0.8011	2.129 mPa·s
298.15 K, 101 kPa, x1 = 0.8967	2.039 mPa·s
298.15 K, 101 kPa, x2 = 0.0021	1.985 mPa·s
298.15 K, 101 kPa, x2 = 0.0695	2.041 mPa·s
298.15 K, 101 kPa, x2 = 0.0932	2.063 mPa·s
298.15 K, 101 kPa, x2 = 0.1232	2.085 mPa·s
298.15 K, 101 kPa, x2 = 0.1439	2.104 mPa·s
298.15 K, 101 kPa, x2 = 0.1892	2.142 mPa·s
298.15 K, 101 kPa, x2 = 0.2084	2.16 mPa·s
298.15 K, 101 kPa, x2 = 0.9678	1.11 mPa·s
298.15 K, 101.3 kPa, x1 = 0.01	1.027 mPa·s
298.15 K, 101.3 kPa, x1 = 0.025	1.247 mPa·s
298.15 K, 101.3 kPa, x1 = 0.045	1.55 mPa·s
298.15 K, 101.3 kPa, x1 = 0.065	1.81 mPa·s
298.15 K, 101.3 kPa, x1 = 0.08	1.969 mPa·s
303.15 K, 101 kPa, x1 = 0.01	0.906 mPa·s
303.15 K, 101 kPa, x1 = 0.02	1.019 mPa·s
303.15 K, 101 kPa, x1 = 0.05	1.366 mPa·s
303.15 K, 101 kPa, x1 = 0.07	1.555 mPa·s
303.15 K, 101 kPa, x1 = 0.1	1.786 mPa·s
303.15 K, 101 kPa, x1 = 0.2838	2.277 mPa·s
303.15 K, 101 kPa, x1 = 0.3	2.267 mPa·s
303.15 K, 101 kPa, x1 = 0.4	2.216 mPa·s
303.15 K, 101 kPa, x1 = 0.5	2.118 mPa·s
303.15 K, 101 kPa, x1 = 0.6	2.023 mPa·s
303.15 K, 101 kPa, x1 = 0.7001	1.92 mPa·s
303.15 K, 101 kPa, x2 = 0.0998	1.794 mPa·s
303.15 K, 101 kPa, x2 = 0.2	1.852 mPa·s
303.15 K, 101 kPa, x2 = 0.2998	1.94 mPa·s
303.15 K, 101 kPa, x2 = 0.5001	2.135 mPa·s
303.15 K, 101 kPa, x2 = 0.6996	2.273 mPa·s
303.15 K, 101 kPa, x2 = 0.7953	2.212 mPa·s
303.15 K, 101 kPa, x2 = 0.8997	1.795 mPa·s
303.15 K, 101 kPa, x2 = 0.9401	1.463 mPa·s
303.15 K, 101 kPa, x2 = 0.98	1.025 mPa·s
308.15 K, 101 kPa, x1 = 0.01	0.81 mPa·s
308.15 K, 101 kPa, x1 = 0.02	0.912 mPa·s
308.15 K, 101 kPa, x1 = 0.05	1.187 mPa·s
308.15 K, 101 kPa, x1 = 0.07	1.342 mPa·s
308.15 K, 101 kPa, x1 = 0.1	1.53 mPa·s
308.15 K, 101 kPa, x1 = 0.2838	1.951 mPa·s
308.15 K, 101 kPa, x1 = 0.3	1.953 mPa·s
308.15 K, 101 kPa, x1 = 0.4	1.915 mPa·s
308.15 K, 101 kPa, x1 = 0.5	1.84 mPa·s
308.15 K, 101 kPa, x1 = 0.6	1.765 mPa·s
308.15 K, 101 kPa, x1 = 0.7001	1.686 mPa·s
308.15 K, 101 kPa, x1 = 0.8	1.623 mPa·s
308.15 K, 101 kPa, x2 = 0.9678	0.9401 mPa·s
313.15 K, 101 kPa, x1 = 0.01	0.728 mPa·s
313.15 K, 101 kPa, x1 = 0.02	0.807 mPa·s
313.15 K, 101 kPa, x1 = 0.05	1.039 mPa·s
313.15 K, 101 kPa, x1 = 0.07	1.167 mPa·s
313.15 K, 101 kPa, x1 = 0.1	1.33 mPa·s
313.15 K, 101 kPa, x1 = 0.2	1.625 mPa·s
313.15 K, 101 kPa, x1 = 0.2838	1.69 mPa·s
313.15 K, 101 kPa, x1 = 0.3	1.692 mPa·s
313.15 K, 101 kPa, x1 = 0.5	1.61 mPa·s
313.15 K, 101 kPa, x1 = 0.6	1.547 mPa·s
313.15 K, 101 kPa, x1 = 0.7001	1.485 mPa·s
318.15 K, 101 kPa, x1 = 0.01	0.659 mPa·s
318.15 K, 101 kPa, x1 = 0.02	0.726 mPa·s
318.15 K, 101 kPa, x1 = 0.05	0.919 mPa·s
318.15 K, 101 kPa, x1 = 0.07	1.027 mPa·s
318.15 K, 101 kPa, x1 = 0.1	1.164 mPa·s
318.15 K, 101 kPa, x1 = 0.2	1.42 mPa·s
318.15 K, 101 kPa, x1 = 0.3	1.479 mPa·s
318.15 K, 101 kPa, x1 = 0.4	1.46 mPa·s
318.15 K, 101 kPa, x1 = 0.5	1.416 mPa·s
318.15 K, 101 kPa, x1 = 0.6	1.366 mPa·s
318.15 K, 101 kPa, x1 = 0.7001	1.315 mPa·s
318.15 K, 101 kPa, x2 = 0.9678	0.819 mPa·s
323.15 K, 100 kPa, x1 = 0.07	0.917 mPa·s
323.15 K, 100 kPa, x1 = 0.2	1.212 mPa·s
323.15 K, 100 kPa, x1 = 0.3	1.314 mPa·s
323.15 K, 101 kPa, x1 = 0.01	0.6 mPa·s
323.15 K, 101 kPa, x1 = 0.02	0.657 mPa·s
323.15 K, 101 kPa, x1 = 0.05	0.82 mPa·s
323.15 K, 101 kPa, x1 = 0.07	0.912 mPa·s
323.15 K, 101 kPa, x1 = 0.1	1.03 mPa·s
323.15 K, 101 kPa, x1 = 0.2	1.25 mPa·s
323.15 K, 101 kPa, x1 = 0.5	1.252 mPa·s
323.15 K, 101 kPa, x1 = 0.6	1.212 mPa·s
323.15 K, 101 kPa, x1 = 0.7001	1.171 mPa·s

Source: the CheMixHub viscosity set
